The subject of data set [1] is BALB/c mice bearing subcutaneously implanted EMT-6 mammary carcinomas. Briefly: Biodistribution of porphyrin XV in mice bearing EMT-6 carcinomas (boron analyses of tissues). It counts as in vivo. Conditions: 220 mg/kg (43 mg B/kg), 6 i.p. injections over 2 days, median (range), n = 5. Here is the method:
Porphyrin compound (XV) was emulsified in 9% Cremophor EL and 18% propylene glycol in saline.
To prepare a solution of ˜3.7 mg/mL porphyrin in 9% Cremophor EL (CRM) and 18% propylene glycol (PRG), the porphyrin was dissolved in tetrahydrofuran (THF) (1.5% of the total volume) and then heated to 40° C. for 15 min. CRM (9% of total volume) was then added and the mixture was heated to 60° C., for 2 hours, which removed most of the THF. After cooling to room temperature, PRG (18% of total volume) was added, followed by slow dropwise addition of saline (71.5% of total volume) with rapid stirring. The solution was degassed by stirring under vacuum (˜30 mm Hg) for 30-60 min and then filtered (Millipore, 8 μm).
BALB/c mice bearing subcutaneously implanted EMT-6 mammary carcinomas implanted on the dorsal thorax were given a total dose of 220 milligrams porphyrin compound XV per kilogram body weight (43 mg B/kg). At one and two days after the last injection, mice were euthanized, and tumor, blood, brain, and liver were removed for boron analyses. The blood was first analyzed for hematologic parameters that indicate toxicity before it was analyzed for boron.

A short description of data set [2]: Weight changes and hematologic parameters that indicate toxicity. Conditions: for % Weight change / Granulocytes / Lymphocytes / Platelets: 220 mg/kg (43 mg B/kg), median (range). In kind it is in vivo, mice.
Setting [3] is: mice, 1 day after last injection.
[4] abbreviates: mice, 2 days after last injection.

Data on 1 substance can be found in patent publication US8444953B2, “Symmetric and asymmetric halogen-containing metallocarboranylporphyrins and uses thereof” (Brookhaven Science Associates, LLC, priority 2007, dated 2013).

Marks after values point to notes of the source that are not given here.

In the case of “Copper (II) 5,10,15-tris[3-o-carboranylmethoxyphenyl]-20-[2,6-difluorophenyl]porphyrin [Porphyrin XV]”, in data set [1] (1 day after last injection), the “Average boron concentration, Blood” value is 47 (38-121) μg B/g; the “Average boron concentration, Brain” value is reported as 1.0 (0.6-1.7) μg B/g; the “Average boron concentration, EMT-6 Tumor” value was 66 (24-153) μg B/g; the “Average boron concentration, Liver” value is given as 300 (245-319) μg B/g. Besides, in data set [1] (1 day after last injection), the “Average boron concentration, Skin (pinna)” value is 5.9 (4.9-9.9) μg B/g. Moreover, in data set [1] (2 days after last injection), the “Average boron concentration, Blood” value is reported as 0.4 (0.3-4.5) μg B/g; the “Average boron concentration, Brain” value is recorded as 0.1 (0-0.2) μg B/g; the “Average boron concentration, EMT-6 Tumor” value is given as 88 (44-115) μg B/g; the “Average boron concentration, Liver” value was 375 (364-419) μg B/g. Further, the “Average boron concentration, Skin (pinna)” value in data set [1] (2 days after last injection) is reported as 6.6 (3.6-8.1) μg B/g. The “median % weight loss (in words)” value in data set [2] (mice receiving porphyrin, 220 mg/kg) is “not significant”. Besides, in data set [2] (setting [3]), the “% Weight change” value is recorded as −0.6 (−3.4-3.3) %, the Granulocytes is listed as 52 (49.8-65.1), the Lymphocytes was 44.3 (31.8-46.5)^b and the Platelets is listed as 374 (158-879)^a. In data set [2] (setting [4]), the “% Weight change” value was −0.2 (−3.3-3.8) %, the Granulocytes was 54.0 (52.4-57.8), the Lymphocytes is 42.6 (38.4-44.1) and the Platelets is given as 478 (91-661)^b. In addition, the “toxicity (in words)” value in data set [2] (mice, 220 mg/kg, weight and hematologic parameters) is “quite mild and transient”.
